Assay results from ChEMBL document CHEMBL1641539 (Bioorg Med Chem Lett, 2011).

Experiments:
[1] = tested on: RAF proto-oncogene serine/threonine-protein kinase (Homo sapiens), P04049 [Y340D,Y341D]; test: Inhibition of RAF1 Y340D, Y341D mutant at 10 uM after 60 mins by TR-FRET assay
[2] = target: Cyclin-dependent kinase 5/CDK5 activator 1 (Homo sapiens) (UniProt Q00535+Q15078); test: Inhibition of CDK5/p25 at 10 uM after 60 mins by TR-FRET assay; type: protein-complex assay
[3] = target: Tyrosine-protein kinase SYK (Homo sapiens) (UniProt P43405); test: Inhibition of SYK at 10 uM after 60 mins by TR-FRET assay
[4] = target: Serine/threonine-protein kinase PLK3 (Homo sapiens) (UniProt Q9H4B4); test: Inhibition of PLK3 at 10 uM after 60 mins by TR-FRET assay
[5] = target: Mitogen-activated protein kinase 8 (Homo sapiens, UniProt P45983); test: Inhibition of recombinant JNK1 after 60 mins by TR-FRET assay
[6] = target: Glycogen synthase kinase-3 beta (Homo sapiens) (UniProt P49841); test: Inhibition of GSK3B at 10 uM after 60 mins by TR-FRET assay
[7] = target: Serine/threonine-protein kinase MARK2 (Homo sapiens) (UniProt Q7KZI7); test: Inhibition of MARK2 at 10 uM after 60 mins by TR-FRET assay
[8] = target: Insulin receptor (Homo sapiens) (UniProt P06213); test: Inhibition of INSR at 10 uM after 60 mins by TR-FRET assay
[9] = target: T1, Mitogen-activated protein kinase 1 (Homo sapiens, UniProt P28482); test: Inhibition of MAPK1 at 10 uM after 60 mins by TR-FRET assay
[10] = target: Proto-oncogene tyrosine-protein kinase receptor Ret (Homo sapiens) (UniProt P07949); test: Inhibition of RET at 10 uM after 60 mins by TR-FRET assay
[11] = target: cAMP-dependent protein kinase catalytic subunit alpha (Homo sapiens) (UniProt P17612); test: Inhibition of PRKACA at 10 uM after 60 mins by TR-FRET assay
[12] = target: PI3-kinase p110-alpha/p85-alpha (Homo sapiens) (UniProt P27986+P42336); test: Inhibition of p110alpha/p85alpha at 10 uM after 60 mins by TR-FRET assay; type: protein-complex assay
[13] = target: Rho-associated protein kinase 2 (Homo sapiens) (UniProt O75116); test: Inhibition of ROCK2 at 10 uM after 60 mins by TR-FRET assay
[14] = target: Leucine-rich repeat serine/threonine-protein kinase 2 (Homo sapiens) (UniProt Q5S007); test: Inhibition of LRRK2 at 10 uM after 60 mins by TR-FRET assay
[15] = target: T1, Mitogen-activated protein kinase 1; test: Inhibition of recombinant ERK2 after 60 mins by TR-FRET assay
[16] = target: Receptor-interacting serine/threonine-protein kinase 2 (Homo sapiens) (UniProt O43353); test: Inhibition of RIPK2 at 10 uM after 60 mins by TR-FRET assay
[17] = target: Receptor-type tyrosine-protein kinase FLT3 (Homo sapiens) (UniProt P36888); test: Inhibition of FLT3 at 10 uM after 60 mins by TR-FRET assay
[18] = target: Mitogen-activated protein kinase 10 (Homo sapiens, UniProt P53779); test: Inhibition of MAPK10 at 10 uM after 60 mins by TR-FRET assay
[19] = target: Receptor tyrosine-protein kinase erbB-4 (Homo sapiens) (UniProt Q15303); test: Inhibition of ERBB4 at 10 uM after 60 mins by TR-FRET assay
[20] = target: Cyclin-dependent kinase 2/cyclin A (Homo sapiens) (UniProt P24941+P20248+P78396); test: Inhibition of CDK2/cyclin A at 10 uM after 60 mins by TR-FRET assay; type: protein-complex assay
[21] = target: Serine/threonine-protein kinase PLK1 (Homo sapiens) (UniProt P53350); test: Inhibition of PLK1 at 10 uM after 60 mins by TR-FRET assay
[22] = target: T2, Serine/threonine-protein kinase 3 (Homo sapiens) (UniProt Q13188); test: Inhibition of STK3 at 10 uM after 60 mins by TR-FRET assay
T2 sequence (whole entry): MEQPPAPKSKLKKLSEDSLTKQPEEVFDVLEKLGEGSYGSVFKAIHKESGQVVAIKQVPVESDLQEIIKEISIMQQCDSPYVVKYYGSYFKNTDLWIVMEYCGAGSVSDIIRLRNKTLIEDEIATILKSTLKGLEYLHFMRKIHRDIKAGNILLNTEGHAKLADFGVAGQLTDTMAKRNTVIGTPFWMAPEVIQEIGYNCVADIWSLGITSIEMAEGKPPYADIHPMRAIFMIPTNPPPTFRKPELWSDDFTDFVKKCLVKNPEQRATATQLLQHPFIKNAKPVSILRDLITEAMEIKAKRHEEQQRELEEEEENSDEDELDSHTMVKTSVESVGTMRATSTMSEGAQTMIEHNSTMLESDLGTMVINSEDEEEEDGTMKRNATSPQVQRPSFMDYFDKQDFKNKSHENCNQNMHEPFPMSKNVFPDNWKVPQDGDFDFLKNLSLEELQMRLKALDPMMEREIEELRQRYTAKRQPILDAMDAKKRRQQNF

[23] = target: Dual specificity protein kinase CLK1 (Homo sapiens) (UniProt P49759); test: Inhibition of CLK1 at 10 uM after 60 mins by TR-FRET assay
[24] = target: Macrophage colony-stimulating factor 1 receptor (Homo sapiens) (UniProt P07333); test: Inhibition of CSF1R at 10 uM after 60 mins by TR-FRET assay
[25] = target: Protein kinase C beta type (Homo sapiens) (UniProt P05771); test: Inhibition of PRKCB1 at 10 uM after 60 mins by TR-FRET assay
[26] = target: RAC-alpha serine/threonine-protein kinase (Homo sapiens) (UniProt P31749); test: Inhibition of AKT1 at 10 uM after 60 mins by TR-FRET assay
[27] = target: Calcium/calmodulin-dependent protein kinase type II subunit alpha (Homo sapiens) (UniProt Q9UQM7); test: Inhibition of CAMK2A at 10 uM after 60 mins by TR-FRET assay
[28] = target: Dual specificity tyrosine-phosphorylation-regulated kinase 1B (Homo sapiens) (UniProt Q9Y463); test: Inhibition of DYRK1B at 10 uM after 60 mins by TR-FRET assay
[29] = target: Serine/threonine-protein kinase PLK2 (Homo sapiens) (UniProt Q9NYY3); test: Inhibition of PLK2 at 10 uM after 60 mins by TR-FRET assay

T1 sequence (P28482 whole entry): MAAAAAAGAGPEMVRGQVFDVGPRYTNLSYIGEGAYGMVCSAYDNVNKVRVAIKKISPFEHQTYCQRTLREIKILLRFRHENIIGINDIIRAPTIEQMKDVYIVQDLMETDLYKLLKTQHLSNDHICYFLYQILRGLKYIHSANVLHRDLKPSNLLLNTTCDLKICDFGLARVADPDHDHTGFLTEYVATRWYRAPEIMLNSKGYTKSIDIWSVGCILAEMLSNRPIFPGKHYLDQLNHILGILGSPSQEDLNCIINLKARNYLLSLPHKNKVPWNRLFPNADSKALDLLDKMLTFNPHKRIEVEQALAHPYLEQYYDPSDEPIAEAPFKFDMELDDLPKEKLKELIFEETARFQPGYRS
RAF proto-oncogene serine/threonine-protein kinase (Homo sapiens), P04049 [Y340D,Y341D], sequence (P04049 whole entry Y340D/Y341D): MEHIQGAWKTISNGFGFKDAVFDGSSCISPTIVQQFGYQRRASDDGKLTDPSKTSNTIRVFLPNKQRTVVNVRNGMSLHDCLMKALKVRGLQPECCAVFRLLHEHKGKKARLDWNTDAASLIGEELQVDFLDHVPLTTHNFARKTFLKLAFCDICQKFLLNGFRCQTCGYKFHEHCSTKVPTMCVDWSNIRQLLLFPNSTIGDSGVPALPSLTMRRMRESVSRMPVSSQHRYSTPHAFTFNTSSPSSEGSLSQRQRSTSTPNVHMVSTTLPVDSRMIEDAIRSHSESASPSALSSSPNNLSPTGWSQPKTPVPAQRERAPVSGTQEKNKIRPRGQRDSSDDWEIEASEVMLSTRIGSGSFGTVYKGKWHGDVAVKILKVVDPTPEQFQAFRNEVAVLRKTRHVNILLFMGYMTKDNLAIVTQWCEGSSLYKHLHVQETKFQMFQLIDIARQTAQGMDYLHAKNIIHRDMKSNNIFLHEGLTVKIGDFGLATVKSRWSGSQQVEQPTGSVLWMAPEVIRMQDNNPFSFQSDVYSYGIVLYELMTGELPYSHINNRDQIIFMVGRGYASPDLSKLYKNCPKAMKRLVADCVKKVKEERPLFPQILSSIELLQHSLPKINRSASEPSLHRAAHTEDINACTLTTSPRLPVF
Calcium/calmodulin-dependent protein kinase type II subunit alpha (Homo sapiens), sequence (Q9UQM7 whole entry): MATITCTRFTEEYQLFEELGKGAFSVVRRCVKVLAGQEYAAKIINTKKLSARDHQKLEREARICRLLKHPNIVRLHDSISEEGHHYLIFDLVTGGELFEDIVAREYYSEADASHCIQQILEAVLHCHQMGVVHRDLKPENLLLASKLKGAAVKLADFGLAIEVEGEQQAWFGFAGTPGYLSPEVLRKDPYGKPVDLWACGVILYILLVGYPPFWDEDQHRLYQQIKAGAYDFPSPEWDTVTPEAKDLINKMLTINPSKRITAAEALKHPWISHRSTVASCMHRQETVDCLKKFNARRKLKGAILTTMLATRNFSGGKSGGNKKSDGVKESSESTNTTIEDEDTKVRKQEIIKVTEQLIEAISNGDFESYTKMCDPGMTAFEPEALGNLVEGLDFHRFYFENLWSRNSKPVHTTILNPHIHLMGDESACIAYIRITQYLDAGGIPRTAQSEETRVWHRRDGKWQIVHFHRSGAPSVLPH
Mitogen-activated protein kinase 8, sequence (P45983 whole entry): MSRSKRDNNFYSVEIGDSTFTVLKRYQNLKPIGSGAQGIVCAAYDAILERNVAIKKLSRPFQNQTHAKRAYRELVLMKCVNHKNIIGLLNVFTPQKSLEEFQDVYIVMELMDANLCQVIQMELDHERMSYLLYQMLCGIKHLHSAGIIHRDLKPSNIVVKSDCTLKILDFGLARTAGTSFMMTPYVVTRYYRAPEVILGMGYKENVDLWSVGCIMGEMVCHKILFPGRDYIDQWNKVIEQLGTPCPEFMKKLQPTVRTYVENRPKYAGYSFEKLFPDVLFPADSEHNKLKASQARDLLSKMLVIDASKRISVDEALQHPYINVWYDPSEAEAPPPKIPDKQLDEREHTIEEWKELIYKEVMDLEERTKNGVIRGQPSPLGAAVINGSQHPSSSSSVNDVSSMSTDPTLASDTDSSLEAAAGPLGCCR
Protein kinase C beta type (Homo sapiens), sequence (P05771 2-671 limits assumed): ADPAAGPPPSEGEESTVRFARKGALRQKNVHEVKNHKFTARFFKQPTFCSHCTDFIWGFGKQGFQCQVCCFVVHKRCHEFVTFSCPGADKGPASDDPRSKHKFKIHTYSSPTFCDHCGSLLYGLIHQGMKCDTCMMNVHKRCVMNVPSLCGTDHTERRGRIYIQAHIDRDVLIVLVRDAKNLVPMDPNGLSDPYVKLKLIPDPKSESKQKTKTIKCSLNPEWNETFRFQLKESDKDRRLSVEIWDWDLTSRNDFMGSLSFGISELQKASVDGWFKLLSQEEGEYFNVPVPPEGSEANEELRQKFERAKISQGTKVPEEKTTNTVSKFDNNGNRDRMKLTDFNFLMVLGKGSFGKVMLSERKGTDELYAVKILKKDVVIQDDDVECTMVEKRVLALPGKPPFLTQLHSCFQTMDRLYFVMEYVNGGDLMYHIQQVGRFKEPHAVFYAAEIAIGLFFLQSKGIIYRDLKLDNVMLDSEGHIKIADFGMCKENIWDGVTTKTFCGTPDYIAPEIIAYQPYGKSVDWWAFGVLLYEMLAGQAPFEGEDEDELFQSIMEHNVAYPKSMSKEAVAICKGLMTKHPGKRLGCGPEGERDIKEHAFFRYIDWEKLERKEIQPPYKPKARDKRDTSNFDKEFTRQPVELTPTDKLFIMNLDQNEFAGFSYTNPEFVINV
RAC-alpha serine/threonine-protein kinase (Homo sapiens), sequence (P31749 whole entry): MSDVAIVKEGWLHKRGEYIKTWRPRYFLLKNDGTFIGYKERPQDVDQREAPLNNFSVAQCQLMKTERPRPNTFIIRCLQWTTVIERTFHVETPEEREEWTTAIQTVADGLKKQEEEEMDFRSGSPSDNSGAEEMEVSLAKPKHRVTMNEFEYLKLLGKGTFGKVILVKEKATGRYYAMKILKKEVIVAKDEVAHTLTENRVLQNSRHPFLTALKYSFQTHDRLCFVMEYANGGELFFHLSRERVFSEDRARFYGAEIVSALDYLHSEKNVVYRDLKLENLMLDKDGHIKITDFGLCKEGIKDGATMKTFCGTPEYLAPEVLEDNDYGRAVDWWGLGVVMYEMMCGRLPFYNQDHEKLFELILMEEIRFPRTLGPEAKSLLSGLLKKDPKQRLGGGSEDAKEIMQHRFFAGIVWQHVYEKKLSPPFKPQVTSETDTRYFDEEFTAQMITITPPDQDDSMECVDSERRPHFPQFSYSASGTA
Dual specificity protein kinase CLK1 (Homo sapiens), sequence (P49759 whole entry, looked up): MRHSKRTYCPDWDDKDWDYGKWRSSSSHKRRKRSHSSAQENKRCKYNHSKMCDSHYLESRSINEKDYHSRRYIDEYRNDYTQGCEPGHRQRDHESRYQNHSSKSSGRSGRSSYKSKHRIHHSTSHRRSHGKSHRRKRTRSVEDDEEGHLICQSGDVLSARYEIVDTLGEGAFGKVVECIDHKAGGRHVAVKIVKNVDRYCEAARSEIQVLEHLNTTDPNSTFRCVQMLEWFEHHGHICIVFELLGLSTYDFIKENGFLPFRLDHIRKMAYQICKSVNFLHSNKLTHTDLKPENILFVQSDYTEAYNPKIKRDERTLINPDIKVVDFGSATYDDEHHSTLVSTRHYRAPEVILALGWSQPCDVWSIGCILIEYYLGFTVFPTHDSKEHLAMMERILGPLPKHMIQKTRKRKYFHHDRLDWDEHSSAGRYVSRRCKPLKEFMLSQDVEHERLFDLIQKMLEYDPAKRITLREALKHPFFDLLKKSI
Macrophage colony-stimulating factor 1 receptor (Homo sapiens), sequence (P07333 whole entry): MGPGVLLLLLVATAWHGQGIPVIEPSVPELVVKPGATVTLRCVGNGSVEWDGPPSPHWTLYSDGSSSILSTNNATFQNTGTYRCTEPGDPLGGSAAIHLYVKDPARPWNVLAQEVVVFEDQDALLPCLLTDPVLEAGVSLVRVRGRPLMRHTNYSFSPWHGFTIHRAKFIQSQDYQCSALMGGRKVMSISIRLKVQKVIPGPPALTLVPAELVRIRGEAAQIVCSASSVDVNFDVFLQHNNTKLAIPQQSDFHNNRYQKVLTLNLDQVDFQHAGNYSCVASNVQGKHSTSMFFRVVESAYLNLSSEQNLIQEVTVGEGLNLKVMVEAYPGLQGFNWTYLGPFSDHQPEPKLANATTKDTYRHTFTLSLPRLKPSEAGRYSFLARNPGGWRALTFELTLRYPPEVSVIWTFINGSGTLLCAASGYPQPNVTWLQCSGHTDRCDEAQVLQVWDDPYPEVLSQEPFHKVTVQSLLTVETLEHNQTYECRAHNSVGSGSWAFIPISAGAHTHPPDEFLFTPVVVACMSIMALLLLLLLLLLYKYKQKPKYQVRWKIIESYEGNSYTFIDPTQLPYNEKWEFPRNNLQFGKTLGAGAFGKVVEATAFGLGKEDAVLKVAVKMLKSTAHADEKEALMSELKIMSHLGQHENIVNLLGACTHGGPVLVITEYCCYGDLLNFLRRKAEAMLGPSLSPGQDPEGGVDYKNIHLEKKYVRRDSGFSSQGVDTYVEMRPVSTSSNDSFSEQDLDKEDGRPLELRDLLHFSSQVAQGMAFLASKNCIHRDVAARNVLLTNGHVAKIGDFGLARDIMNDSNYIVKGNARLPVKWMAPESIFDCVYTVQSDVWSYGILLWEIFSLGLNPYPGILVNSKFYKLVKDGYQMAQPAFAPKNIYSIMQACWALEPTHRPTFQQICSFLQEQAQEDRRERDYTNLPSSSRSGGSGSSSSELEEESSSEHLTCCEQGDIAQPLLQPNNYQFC
Glycogen synthase kinase-3 beta (Homo sapiens), sequence (P49841 whole entry, looked up): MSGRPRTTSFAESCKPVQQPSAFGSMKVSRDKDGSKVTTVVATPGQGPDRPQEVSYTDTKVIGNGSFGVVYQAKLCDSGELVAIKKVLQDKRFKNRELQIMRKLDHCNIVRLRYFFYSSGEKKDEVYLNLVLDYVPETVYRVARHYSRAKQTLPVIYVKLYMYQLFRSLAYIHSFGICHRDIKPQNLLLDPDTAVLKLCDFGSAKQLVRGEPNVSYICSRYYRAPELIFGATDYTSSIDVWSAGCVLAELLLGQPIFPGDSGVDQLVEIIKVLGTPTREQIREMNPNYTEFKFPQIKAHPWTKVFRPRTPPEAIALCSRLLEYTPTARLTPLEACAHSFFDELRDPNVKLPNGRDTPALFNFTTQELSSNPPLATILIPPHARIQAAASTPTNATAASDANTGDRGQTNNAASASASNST

Molecule `O=c1[nH]nc(-c2ccnc(NC3CCCOC3)c2)n1-c1ccc2ccccc2c1` (centres undefined) has an inhibition [1] of 0%, an inhibition [2] of 15% and an inhibition [3] of 70%. It also gave an inhibition [4] of 79%, an IC50 [5] of 0.74 µM and an inhibition [6] of 81%. The inhibition [7] was 1%, the inhibition [8] was 18% and the inhibition [9] was 1%. The inhibition [10] was 37%, the inhibition [11] was 47% and the inhibition [12] was 34%. For the same molecule, the inhibition [13] was 8%, the inhibition [14] was 29% and the IC50 [15] was 22 µM. The inhibition [16] was 1%, the inhibition [17] was 23% and the inhibition [18] was 81%. It also gave an inhibition [19] of 16%, an inhibition [20] of 3% and an inhibition [21] of 27%. It also gave an inhibition [22] of -5%, an inhibition [23] of 22% and an inhibition [24] of 60%. The inhibition [25] was 10%, the inhibition [26] was 0% and the inhibition [27] was 38%. For the same molecule, the inhibition [28] was 76% and the inhibition [29] was 62%.
